# Assays:
# Plasma [1] = test: Anticoagulant potency in human plasma assessed as concentration for doubling of prothrombin time; format: functional
# [2] = Distribution coefficient, log D at pH 7.4; format: physicochemical; conditions: octanol/water
# Coagulation factor X [3] = molecular target: Coagulation factor X (Homo sapiens, UniProt P00742); test: Inhibition of human F10a; conditions: read-out: Ki app
# Prothrombin = Prothrombin (Homo sapiens, UniProt P00734); test: Inhibition of human F2a; conditions: read-out: Ki app
# [4] = Clearance in Beagle dog at 1 mg/kg, iv; format: ADME, organism-based, Canis lupus familiaris; set-up: dose 1 mg/kg, route intravenous; conditions: in vivo
# [5] = Volume of distribution at steady state in Beagle dog at 1 mg/kg, iv; format: ADME, organism-based, Canis lupus familiaris; set-up: dose 1 mg/kg, route intravenous; conditions: in vivo, read-out: Vss
# [6] = Half life in Beagle dog at 1 mg/kg, iv; format: ADME, organism-based, Canis lupus familiaris; set-up: dose 1 mg/kg, route intravenous; conditions: in vivo
# [7] = Cmax in Beagle dog at 10 mg/kg, po; format: ADME, organism-based, Canis lupus familiaris; set-up: dose 10 mg/kg, route oral; conditions: in vivo
# [8] = Bioavailability in Beagle dog at 10 mg/kg, po normalized to 1 mg/kg, iv; format: ADME, organism-based, Canis lupus familiaris; conditions: in vivo
# Plasma [9] = test: Anticoagulant potency in dog plasma assessed as concentration for doubling of prothrombin time; format: functional, Canis lupus familiaris
# Plasma [10] = test: Anticoagulant potency in rat plasma assessed as concentration for doubling of prothrombin time; format: functional
# [11] = Inhibition of dog F10a; set-up: species or system Canis lupus familiaris
# Coagulation factor X [12] = molecular target: Coagulation factor X (Rattus norvegicus, UniProt Q63207); test: Inhibition of rat F10a
# Sequence of Coagulation factor X (Rattus norvegicus, UniProt Q63207) (Q63207 41-180 limits assumed): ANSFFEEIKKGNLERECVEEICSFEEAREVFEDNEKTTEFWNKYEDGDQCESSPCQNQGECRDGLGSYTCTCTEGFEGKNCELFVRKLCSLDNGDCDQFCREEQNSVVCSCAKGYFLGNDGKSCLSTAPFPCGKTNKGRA
# Sequence of Coagulation factor X (Rattus norvegicus, UniProt Q63207) (Q63207 232-482 limits assumed): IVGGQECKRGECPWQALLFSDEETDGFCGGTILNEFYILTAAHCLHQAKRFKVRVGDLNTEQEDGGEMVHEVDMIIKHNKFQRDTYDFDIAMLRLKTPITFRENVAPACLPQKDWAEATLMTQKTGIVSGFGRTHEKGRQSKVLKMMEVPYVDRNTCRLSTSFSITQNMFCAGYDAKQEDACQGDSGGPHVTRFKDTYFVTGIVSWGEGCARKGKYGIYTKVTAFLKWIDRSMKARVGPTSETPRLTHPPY
# Trypsin = Trypsin (Homo sapiens, UniProt P07477+P07478+P35030); test: Inhibition of human trypsin; format: protein assay
# [13] = molecular target: Tissue-type plasminogen activator (Homo sapiens, UniProt P00750); test: Inhibition of human tPA
# Sequence of Tissue-type plasminogen activator (P00750 whole entry): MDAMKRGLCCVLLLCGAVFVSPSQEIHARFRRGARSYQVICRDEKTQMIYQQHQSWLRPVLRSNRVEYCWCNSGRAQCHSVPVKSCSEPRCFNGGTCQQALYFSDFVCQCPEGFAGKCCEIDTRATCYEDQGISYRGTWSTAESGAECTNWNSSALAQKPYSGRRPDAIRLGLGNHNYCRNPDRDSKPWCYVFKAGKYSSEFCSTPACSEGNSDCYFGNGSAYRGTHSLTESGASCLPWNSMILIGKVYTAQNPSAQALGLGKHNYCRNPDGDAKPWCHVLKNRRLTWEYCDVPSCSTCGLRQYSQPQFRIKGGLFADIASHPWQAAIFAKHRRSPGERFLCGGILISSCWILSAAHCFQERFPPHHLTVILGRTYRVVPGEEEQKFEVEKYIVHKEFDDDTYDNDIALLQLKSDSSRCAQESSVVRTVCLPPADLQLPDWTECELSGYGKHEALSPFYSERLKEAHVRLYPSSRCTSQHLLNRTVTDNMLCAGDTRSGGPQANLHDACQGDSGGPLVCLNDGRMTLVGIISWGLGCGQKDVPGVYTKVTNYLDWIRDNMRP
# Plasma kallikrein = Plasma kallikrein (Homo sapiens, UniProt P03952); test: Inhibition of human kallikrein
# Sequence of Plasma kallikrein (P03952 20-390 limits assumed): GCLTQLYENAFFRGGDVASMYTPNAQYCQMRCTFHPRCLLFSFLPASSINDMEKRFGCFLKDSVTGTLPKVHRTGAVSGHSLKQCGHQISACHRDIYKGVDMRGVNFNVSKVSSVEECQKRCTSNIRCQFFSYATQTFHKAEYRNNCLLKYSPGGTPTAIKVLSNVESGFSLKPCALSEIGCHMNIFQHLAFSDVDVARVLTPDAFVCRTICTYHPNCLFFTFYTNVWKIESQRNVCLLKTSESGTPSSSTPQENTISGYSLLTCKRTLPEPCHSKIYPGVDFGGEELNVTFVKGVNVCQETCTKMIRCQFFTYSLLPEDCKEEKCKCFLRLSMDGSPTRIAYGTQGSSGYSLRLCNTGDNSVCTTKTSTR
# Sequence of Plasma kallikrein (P03952 391-638 limits assumed): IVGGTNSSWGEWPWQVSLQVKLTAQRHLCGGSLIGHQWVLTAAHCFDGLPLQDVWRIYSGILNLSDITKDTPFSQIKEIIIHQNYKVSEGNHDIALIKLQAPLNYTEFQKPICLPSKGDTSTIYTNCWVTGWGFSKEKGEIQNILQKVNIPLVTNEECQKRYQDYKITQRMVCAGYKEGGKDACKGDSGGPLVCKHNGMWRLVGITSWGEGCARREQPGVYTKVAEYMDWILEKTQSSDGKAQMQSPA
# Coagulation factor XI = Coagulation factor XI (Homo sapiens, UniProt P03951); test: Inhibition of human F11a
# Sequence of Coagulation factor XI (P03951 19-387 limits assumed): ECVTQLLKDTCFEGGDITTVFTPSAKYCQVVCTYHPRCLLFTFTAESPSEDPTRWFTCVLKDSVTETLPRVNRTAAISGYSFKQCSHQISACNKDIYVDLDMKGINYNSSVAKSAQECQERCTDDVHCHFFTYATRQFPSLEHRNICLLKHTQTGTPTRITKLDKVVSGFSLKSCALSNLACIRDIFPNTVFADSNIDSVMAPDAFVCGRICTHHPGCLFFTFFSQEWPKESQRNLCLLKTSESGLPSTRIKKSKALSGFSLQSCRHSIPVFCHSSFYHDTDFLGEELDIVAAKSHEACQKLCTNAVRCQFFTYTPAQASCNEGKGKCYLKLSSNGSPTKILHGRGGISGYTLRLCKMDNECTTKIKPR
# Sequence of Coagulation factor XI (P03951 388-625 limits assumed): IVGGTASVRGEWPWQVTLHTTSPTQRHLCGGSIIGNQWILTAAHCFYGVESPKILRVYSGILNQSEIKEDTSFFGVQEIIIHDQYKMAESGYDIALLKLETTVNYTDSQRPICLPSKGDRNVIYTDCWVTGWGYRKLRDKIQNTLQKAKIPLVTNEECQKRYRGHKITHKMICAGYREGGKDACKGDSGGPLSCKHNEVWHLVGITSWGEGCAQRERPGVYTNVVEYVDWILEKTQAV
# [14] = molecular target: Urokinase-type plasminogen activator (Homo sapiens, UniProt P00749); test: Inhibition of human urokinase
# Plasminogen = Plasminogen (Homo sapiens, UniProt P00747); test: Inhibition of human plasmin
# Sequence of Plasminogen (P00747 97-580 limits assumed): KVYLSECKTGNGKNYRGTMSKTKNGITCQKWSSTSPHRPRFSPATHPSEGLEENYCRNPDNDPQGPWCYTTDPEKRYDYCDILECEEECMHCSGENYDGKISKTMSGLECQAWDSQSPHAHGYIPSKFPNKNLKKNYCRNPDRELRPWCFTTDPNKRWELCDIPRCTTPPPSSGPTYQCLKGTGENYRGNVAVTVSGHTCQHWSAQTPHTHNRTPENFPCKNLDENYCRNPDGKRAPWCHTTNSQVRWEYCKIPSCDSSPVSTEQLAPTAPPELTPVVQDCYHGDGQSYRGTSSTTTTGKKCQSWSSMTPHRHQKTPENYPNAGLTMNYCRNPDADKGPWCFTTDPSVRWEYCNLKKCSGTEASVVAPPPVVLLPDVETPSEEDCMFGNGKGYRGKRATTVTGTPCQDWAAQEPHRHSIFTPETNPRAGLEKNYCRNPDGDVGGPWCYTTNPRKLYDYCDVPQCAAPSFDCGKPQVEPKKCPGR
# Sequence of Plasminogen (P00747 581-810 limits assumed): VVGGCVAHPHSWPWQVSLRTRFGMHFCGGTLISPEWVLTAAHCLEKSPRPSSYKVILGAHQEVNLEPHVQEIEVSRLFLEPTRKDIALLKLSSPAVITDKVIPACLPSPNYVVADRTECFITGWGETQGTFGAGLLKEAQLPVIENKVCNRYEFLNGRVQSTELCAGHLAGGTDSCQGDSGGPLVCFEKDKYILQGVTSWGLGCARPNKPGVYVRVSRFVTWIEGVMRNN
# [15] = Inhibition of human chymotrypsin
# Cathepsin G = molecular target: T1, Cathepsin G (Homo sapiens, UniProt P08311); test: Inhibition of human cathepsin G
# T1 sequence (P08311 whole entry): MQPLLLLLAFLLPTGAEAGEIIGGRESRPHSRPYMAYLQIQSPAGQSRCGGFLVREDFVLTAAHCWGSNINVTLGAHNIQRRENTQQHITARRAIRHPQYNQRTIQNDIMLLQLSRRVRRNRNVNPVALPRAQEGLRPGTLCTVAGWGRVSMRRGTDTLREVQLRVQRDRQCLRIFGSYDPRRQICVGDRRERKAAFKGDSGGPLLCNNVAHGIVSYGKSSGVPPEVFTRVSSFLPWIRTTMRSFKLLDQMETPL
# Neutrophil elastase = molecular target: T2, Neutrophil elastase (Homo sapiens, UniProt P08246); test: Inhibition of human neutrophil elastase
# T2 sequence (P08246 whole entry): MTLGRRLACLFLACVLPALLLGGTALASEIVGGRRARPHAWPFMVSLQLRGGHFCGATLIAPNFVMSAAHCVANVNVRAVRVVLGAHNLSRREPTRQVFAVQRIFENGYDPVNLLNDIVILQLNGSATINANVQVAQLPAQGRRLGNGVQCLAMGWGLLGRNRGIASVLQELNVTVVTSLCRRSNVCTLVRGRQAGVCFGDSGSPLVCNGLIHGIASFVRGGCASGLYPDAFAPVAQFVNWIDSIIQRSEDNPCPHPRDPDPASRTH
# Rattus norvegicus = test: Inhibition of thrombosis in iv dosed Wistar rat vena cava stasis model; format: functional, organism-based
# Canis familiaris [16] = test: Ex vivo anticoagulant potency in dog assessed as prolongation of prothrombin time at 10 mg/kg, po after 1 hr; format: functional, Canis lupus familiaris
# Canis familiaris [17] = test: Ex vivo anticoagulant potency in dog assessed as prolongation of prothrombin time at 10 mg/kg, po after 2 hrs; format: functional, Canis lupus familiaris
# Canis familiaris [18] = test: Ex vivo anticoagulant potency in dog assessed as prolongation of prothrombin time at 10 mg/kg, po after 6 hrs; format: functional, Canis lupus familiaris
# Sequence of Coagulation factor X (Homo sapiens, UniProt P00742) (P00742 41-179 limits assumed): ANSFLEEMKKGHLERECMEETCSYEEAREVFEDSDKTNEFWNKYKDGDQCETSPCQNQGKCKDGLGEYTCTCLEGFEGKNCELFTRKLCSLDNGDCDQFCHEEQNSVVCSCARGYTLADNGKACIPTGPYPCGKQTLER
# Sequence of Coagulation factor X (Homo sapiens, UniProt P00742) (P00742 235-488 limits assumed): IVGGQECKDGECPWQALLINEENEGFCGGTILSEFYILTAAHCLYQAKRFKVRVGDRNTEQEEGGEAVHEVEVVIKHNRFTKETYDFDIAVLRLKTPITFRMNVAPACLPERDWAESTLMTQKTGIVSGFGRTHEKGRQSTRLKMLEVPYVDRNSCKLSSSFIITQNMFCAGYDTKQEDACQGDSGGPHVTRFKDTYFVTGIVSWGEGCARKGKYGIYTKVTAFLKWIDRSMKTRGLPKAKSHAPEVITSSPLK
compound,measurement,setting,value
CN1CCN(Cc2csc(C(=O)Nc3ccc(Cl)cc3C(=O)Nc3ccc(Cl)cn3)c2Cl)CC1,Activity,Plasma [1],6.9 µM
same,logD,[2],3.11
same,Ki,Coagulation factor X [3],0.36 nM
same,Ki,Prothrombin,680 nM
CN1CCN(Cc2csc(C(=O)Nc3ccc(Cl)cc3C(=O)Nc3ccc(Cl)cc3)c2Cl)CC1,Activity,Plasma [1],12 µM
same,logD,[2],2.96
same,Ki,Coagulation factor X [3],0.76 nM
same,Ki,Prothrombin,840 nM
CNc1nccn1Cc1csc(C(=O)Nc2c(OC)cc(Cl)cc2C(=O)Nc2ccc(Cl)cn2)c1Cl,Activity,Plasma [1],1.2 µM
same,Ki,Prothrombin,990 nM
same,clearance,[4],4.4 mL/min/kg
same,Vd,[5],1 L/kg
same,half-life,[6],3.4 h
same,Cmax,[7],3700 ng/mL
same,bioavailability,[8],98%
same,Activity,Plasma [9],4.2 µM
same,Activity,Plasma [10],2.56 µM
same,Ki,[11],0.31 nM
same,Ki,Coagulation factor X [12],0.06 nM
same,Ki,Trypsin,> 5000 nM
same,Ki,[13],> 5000 nM
same,Ki,Plasma kallikrein,45 nM
same,Ki,Coagulation factor XI,> 5000 nM
same,Ki,[14],> 5000 nM
same,Ki,Plasminogen,> 5000 nM
same,Ki,[15],> 5000 nM
same,Ki,Cathepsin G,> 5000 nM
same,Ki,Neutrophil elastase,> 5000 nM
same,Activity,Rattus norvegicus,Dose-dependent effect
COc1cc(Cl)cc(C(=O)Nc2ccc(Cl)cn2)c1NC(=O)c1scc(CN(C)c2ncc[nH]2)c1Cl,Activity,Plasma [1],1.8 µM
same,Ki,Coagulation factor X [3],0.02 nM
same,Ki,Prothrombin,860 nM
COc1cc(Cl)cc(C(=O)Nc2ccc(Cl)cn2)c1NC(=O)c1scc(Cn2ccnc2C)c1Cl,Activity,Plasma [1],1.4 µM
same,Ki,Coagulation factor X [3],≤ 0.01 nM
same,Ki,Prothrombin,440 nM
COc1cc(Cl)cc(C(=O)Nc2ccc(Cl)cn2)c1NC(=O)c1scc(CN2CCN(C)CC2)c1Cl,Activity,Plasma [1],1.6 µM
same,logD,[2],2.75
same,Ki,Coagulation factor X [3],0.16 nM
same,Ki,Prothrombin,1500 nM
COc1cc(Cl)cc(C(=O)Nc2ccc(Cl)cn2)c1NC(=O)c1scc(CN(C)C(=N)N)c1Cl,Activity,Plasma [1],0.4 µM
same,Ki,Coagulation factor X [3],≤ 0.01 nM
same,Ki,Prothrombin,630 nM
CCNC(=O)N(C)Cc1csc(C(=O)Nc2c(OC)cc(Cl)cc2C(=O)Nc2ccc(Cl)cn2)c1Cl,Activity,Plasma [1],5.8 µM
same,Ki,Coagulation factor X [3],0.02 nM
same,Ki,Prothrombin,450 nM
COc1cc(Cl)cc(C(=O)Nc2ccc(Cl)cn2)c1NC(=O)c1scc(Cn2ccnc2)c1Cl,Activity,Plasma [1],2 µM
same,Ki,Coagulation factor X [3],0.022 nM
same,Ki,Prothrombin,510 nM
COc1cc(Cl)cc(C(=O)Nc2ccc(Cl)cn2)c1NC(=O)c1scc(Cn2ccnc2N)c1Cl,Activity,Plasma [1],0.77 µM
same,Ki,Coagulation factor X [3],0.006 nM
same,Ki,Prothrombin,3500 nM
COc1cc(Cl)cc(C(=O)Nc2ccc(Cl)cn2)c1NC(=O)c1scc(CN(C)CCO)c1Cl,Activity,Plasma [1],1.6 µM
same,Ki,Coagulation factor X [3],0.24 nM
same,Ki,Prothrombin,1400 nM
same,clearance,[4],27 mL/min/kg
same,Vd,[5],4.4 L/kg
same,half-life,[6],2.1 h
same,Cmax,[7],1200 ng/mL
same,bioavailability,[8],> 100%
COc1cc(Cl)cc(C(=O)Nc2ccc(Cl)cn2)c1NC(=O)c1scc(CN(C)c2ncco2)c1Cl,Activity,Plasma [1],4.2 µM
same,Ki,Coagulation factor X [3],0.059 nM
same,Ki,Prothrombin,60 nM
COc1cc(Cl)cc(C(=O)Nc2ccc(Cl)cn2)c1NC(=O)c1scc(CN(C)C2=NC(=O)CO2)c1Cl,Activity,Plasma [1],2.2 µM
same,Ki,Coagulation factor X [3],0.026 nM
same,Ki,Prothrombin,90 nM
COc1cc(Cl)cc(C(=O)Nc2ccc(Cl)cn2)c1NC(=O)c1scc(CN(C)CCN2CCCC2)c1Cl,Activity,Plasma [1],0.24 µM
same,Ki,Coagulation factor X [3],0.019 nM
same,Ki,Prothrombin,190 nM
CCNc1nccn1Cc1csc(C(=O)Nc2c(OC)cc(Cl)cc2C(=O)Nc2ccc(Cl)cn2)c1Cl,Activity,Plasma [1],1.8 µM
same,Ki,Coagulation factor X [3],0.005 nM
same,Ki,Prothrombin,1100 nM
COc1cc(Cl)cc(C(=O)Nc2ccc(Cl)cn2)c1NC(=O)c1scc(CN(C)C(N)=O)c1Cl,Activity,Plasma [1],2.6 µM
same,Ki,Coagulation factor X [3],0.026 nM
same,Ki,Prothrombin,340 nM
COc1cc(Cl)cc(C(=O)Nc2ccc(Cl)cn2)c1NC(=O)c1scc(CN(C)CC(O)CO)c1Cl (centres undefined),Activity,Plasma [1],3.2 µM
same,Ki,Coagulation factor X [3],0.26 nM
same,Ki,Prothrombin,1200 nM
COc1cc(Cl)cc(C(=O)Nc2ccc(Cl)cn2)c1NC(=O)c1scc(CN(C)CCCO)c1Cl,Activity,Plasma [1],1.5 µM
same,Ki,Coagulation factor X [3],0.18 nM
same,Ki,Prothrombin,1100 nM
COc1cc(Cl)cc(C(=O)Nc2ccc(Cl)cn2)c1NC(=O)c1scc(CN(C)CC(C)(C)O)c1Cl,Activity,Plasma [1],5.3 µM
same,Ki,Coagulation factor X [3],0.71 nM
same,Ki,Prothrombin,1100 nM
COc1cc(Cl)cc(C(=O)Nc2ccc(Cl)cc2)c1NC(=O)c1scc(CN2CCN(C)CC2)c1Cl,Activity,Plasma [1],4.2 µM
same,Ki,Coagulation factor X [3],0.43 nM
same,Ki,Prothrombin,1300 nM
COc1cc(Cl)cc(C(=O)Nc2ccc(Cl)cn2)c1NC(=O)c1scc(CN(C)C2=NCCCO2)c1Cl,Activity,Plasma [1],0.22 µM
same,Ki,Coagulation factor X [3],0.012 nM
same,Ki,Prothrombin,160 nM
COc1cc(Cl)cc(C(=O)Nc2ccc(Cl)cn2)c1NC(=O)c1scc(CN(C)C2=NCCO2)c1Cl,Activity,Plasma [1],0.36 µM
same,Ki,Coagulation factor X [3],0.007 nM
same,Ki,Prothrombin,90 nM
same,clearance,[4],5.8 mL/min/kg
same,Vd,[5],1.6 L/kg
same,half-life,[6],3.2 h
same,Cmax,[7],1900 ng/mL
same,bioavailability,[8],56%
same,Activity,Plasma [9],0.35 µM
same,Activity,Plasma [10],93 µM
same,Ki,[11],0.15 nM
same,Ki,Coagulation factor X [12],0.29 nM
same,Fold change,Canis familiaris [16],3.2
same,Fold change,Canis familiaris [17],5
same,Fold change,Canis familiaris [18],4
same,Ki,Trypsin,> 10000 nM
same,Ki,[13],> 5000 nM
same,Ki,Plasma kallikrein,37 nM
same,Ki,Coagulation factor XI,> 10000 nM
same,Ki,[14],> 5000 nM
same,Ki,Plasminogen,> 10000 nM
same,Ki,[15],> 10000 nM
same,Ki,Cathepsin G,> 10000 nM
same,Ki,Neutrophil elastase,> 10000 nM
COc1cc(Cl)cc(C(=O)Nc2ccc(Cl)cn2)c1NC(=O)c1scc(CN)c1Cl,Activity,Plasma [1],4.2 µM
same,Ki,Coagulation factor X [3],1 nM
same,Ki,Prothrombin,> 5000 nM
COCCN(Cc1csc(C(=O)Nc2c(OC)cc(Cl)cc2C(=O)Nc2ccc(Cl)cn2)c1Cl)C1=NCCO1,Activity,Plasma [1],1.1 µM
same,Ki,Coagulation factor X [3],0.26 nM
same,Ki,Prothrombin,2000 nM
COc1cc(Cl)cc(C(=O)Nc2ccc(Cl)cn2)c1NC(=O)c1scc(CN(C)CC(C)O)c1Cl (centres undefined),Activity,Plasma [1],1.5 µM
same,Ki,Coagulation factor X [3],0.4 nM
same,Ki,Prothrombin,2100 nM
CNCc1csc(C(=O)Nc2c(OC)cc(Cl)cc2C(=O)Nc2ccc(Cl)cn2)c1Cl,Activity,Plasma [1],1.6 µM
same,Ki,Coagulation factor X [3],0.21 nM
same,Ki,Prothrombin,3700 nM
same,clearance,[4],1.6 mL/min/kg
same,Vd,[5],1.4 L/kg
same,half-life,[6],10.5 h
same,Cmax,[7],5100 ng/mL
same,bioavailability,[8],75%
same,Activity,Plasma [9],4.35 µM
same,Activity,Plasma [10],7.3 µM
same,Ki,[11],1.7 nM
same,Ki,Coagulation factor X [12],2.5 nM
same,Ki,Trypsin,> 10000 nM
same,Ki,[13],> 5000 nM
same,Ki,Plasma kallikrein,1000 nM
same,Ki,Coagulation factor XI,> 10000 nM
same,Ki,[14],> 5000 nM
same,Ki,Plasminogen,> 10000 nM
same,Ki,[15],> 10000 nM
same,Ki,Cathepsin G,> 10000 nM
same,Ki,Neutrophil elastase,10000 nM
same,Activity,Rattus norvegicus,Dose-dependent effect
COc1cc(Cl)cc(C(=O)Nc2ccc(Cl)cn2)c1NC(=O)c1scc(CN(C)C(=O)NCCC(=O)O)c1Cl,Activity,Plasma [1],7 µM
same,Ki,Coagulation factor X [3],0.022 nM
same,Ki,Prothrombin,630 nM
CCN(CC)Cc1csc(C(=O)Nc2c(OC)cc(Cl)cc2C(=O)Nc2ccc(Cl)cn2)c1Cl,Activity,Plasma [1],2.4 µM
same,Ki,Coagulation factor X [3],0.32 nM
same,Ki,Prothrombin,1500 nM
COc1cc(Cl)cc(C(=O)Nc2ccc(Cl)cn2)c1NC(=O)c1scc(CN2CCCC2)c1Cl,Activity,Plasma [1],1.6 µM
same,Ki,Coagulation factor X [3],0.52 nM
same,Ki,Prothrombin,1400 nM
COc1cc(Cl)cc(C(=O)Nc2ccc(Cl)cn2)c1NC(=O)c1scc(CN(C)C(=O)NCCO)c1Cl,Activity,Plasma [1],4.1 µM
same,Ki,Coagulation factor X [3],0.05 nM
same,Ki,Prothrombin,360 nM
COc1cc(Cl)cc(C(=O)Nc2ccc(Cl)cn2)c1NC(=O)c1scc(CN2C=NCC2)c1Cl,Activity,Plasma [1],0.26 µM
same,Ki,Coagulation factor X [3],0.004 nM
same,Ki,Prothrombin,3300 nM
